Source: patent publication US4495356A, “1,4-Dihydropyridine compound” (Nikken Chemicals Co., Ltd., priority 1982, dated 1985)

How the values were obtained:
[1] = test system: hepatic disorder induced by carbon tetrachloride; test: Effect on hepatic disorder induced by carbon tetrachloride in rats (Examples 6 and 7; serum GOT, GPT, bilirubin); format: in vivo, SLC-Wistar male rats; conditions: CCl4 0.5 ml/kg i.p., 200 mg/kg orally for 2 days, blood 24 hours after CCl4; for Bilirubin in serum: normal 0.10 ± 0.00, no combination compound 0.24 ± 0.02; for GPT in serum: normal 46 ± 6, no combination compound 10266 ± 818; for GOT in serum: normal 97 ± 10, no combination compound 16650 ± 1636
Protocol: The effects of the sample compounds on hepatic disorders were evaluated by determining the levels of GOT, GPT, and bilirubin […] in serum, after administering carbon tetrachloride and the sample compound to SLC-Wistar male rats (10 week age and body weight of 240 to 270 g) as follows.
Five rats were used in each test group. The sample compounds (i.e., the compounds prepared in Examples 2 and 3) were suspended at a concentration of 40 mg/ml in a 0.1% aqueous solution of Tween-80. Alpha-tocopherol was dissolved at a concentration of 40 mg/ml in olive oil. This solution was administered orally at a dose of 200 mg/kg each for 2 days. Glutathione was dissolved at a concentration of 100 mg/ml in a 0.1% aqueous solution of Tween-80. This solution was orally administered at a dose of 500 mg/kg for 2 days. Carbon tetrachloride was intraperitoneally administered as a 10% olive oil solution at a dose of 5 ml/kg (0.5 ml/kg in terms of CCl4) one hour after the final administration of each sample compound.
Blood sampels were collected from the carotid artery under pentobarbital anesthesia, 24 hours after the administration of carbon tetrachloride. The rats were fasted for 18 to 20 hours before collecting of a blood sample.
(§1) The determination of GOT and GPT in serum was carried out according to a UV method and the determination of bilirubin was carried out according to a diazo method.

in vivo = conditions: rat, oral, rats 5 week age, observed for 3 days
[2] = test system: liver disorder induced by D-galactosamine; test: Effect on liver disorder induced by D-galactosamine in rats (serum GOT, GPT, bilirubin); format: in vivo, Wistar-Imamichi male rats; conditions: D-galactosamine 400 mg/kg i.p., 200 mg/kg orally for 2 days, blood 24 hours after D-galactosamine; for Bilirubin in serum: normal 0.12 ± 0.02, no combination compound 0.43 ± 0.06; for GPT in serum: normal 15 ± 1, no combination compound 2195 ± 460; for GOT in serum: normal 97 ± 3, no combination compound 6170 ± 1507
Protocol: Effect of 3,5-diethoxycarbonyl-4-[2'-(5',6'-dihydro-p-dioxinyl)]-2,6-dimethyl-1,4-dihydropyridine (compound of Example 1) on liver disorder induced by D-galactosamine.
The effect of the sample compound to be tested on hepatic disorder was evaluated by determining the levels of GOT, GPT and bilirubin, which are known as an indicator of hepatic disorder, in serum, after administering D-galactosamine hydrochloride and the sample compound to Wistar-Imamichi male rats (8 week age and body weight of 260 to 280 g) as follows.
Five rats were used in each test group. The sample compound (i.e., the compound prepared in Example 1) was suspended at a concentration of 40 mg/ml in a 0.1% aqueous solution of Tween-80 (Trademark of surfactant available from Atlas Chemical Corp.). Alpha-tocopherol was dissolved at a concentration of 40 mg/ml in olive oil. This solution was administered orally at a dose of 200 mg/kg each for 2 days (25 and 1 hours before the administration of D-galactosamine). D-galactosamine was dissolved at a concentration of 100 mg/ml in a Physiological saline and this solution was administered intraperitoneally at a single dose of 400 mg/kg one hour after the final administration of the sample compound.
Blood samples were collected from the carotid artery under pentobarbital anesthesia, 24 hours after the administration of D-galactosamine. The rats were fasted for 18 to 20 hours before collecting of blood sample.
as §1

[3] = test system: hepatic disorder induced by carbon tetrachloride; test: Effect on hepatic disorder induced by carbon tetrachloride in rats (Example 5; serum GOT, GPT, bilirubin); format: in vivo, SLC-Wistar male rats; conditions: CCl4 0.5 ml/kg i.p., blood 24 hours after CCl4; for Bilirubin in serum: normal 0.12 ± 0.02, no combination compound 0.26 ± 0.02; for GPT in serum: normal 32 ± 3, no combination compound 10606 ± 1952; for GOT in serum: normal 73 ± 5, no combination compound 18228 ± 2032
Protocol: Five rats were used in each test group. The sample compound (i.e., the compound prepared in Example 1) was suspended at a concentration of 40 mg/ml in a 0.1% aqueous solution of Tween-80. Alpha-tocopherol was dissolved at a concentration of 40 mg/ml in an olive oil. This solution was administered orally at a dose of 200 mg/kg each for 2 days. Glutathione was dissolved at a concentration of 100 mg/ml in a 0.1% aqueous solution of Tween-80. This solution was orally administered at a dose of 500 mg/kg for 2 days. Carbon tetrachloride was intraperitoneally administered as a 10% olive oil solution at a dose of 5 ml/kg (0.5 ml/kg in terms of CCl4) one hour after the final administration of the sample compound. Blood samples were collected from the carotid artery under pentobarbital anesthesia, 24 hours after the administration of carbon tetrachloride. […] The determination of GOT and GPT in serum was carried out according to a UV method and the determination of bilirubin was carried out according to a diazo method.

[4] = glutathione 500 mg/kg orally for 2 days

| Compound | Bilirubin in serum [1] [mg/dL] | GPT in serum [1] [KU] | GOT in serum [1] [KU] | LD50 at 72 h (in vivo) [mg/kg] | Bilirubin in serum [2] [mg/dL] | GPT in serum [2] [KU] | GOT in serum [2] [KU] | Bilirubin in serum ([3]; 200 mg/kg orally for 2 days) [mg/dL] | GPT in serum ([3]; 200 mg/kg orally for 2 days) [KU] | GOT in serum ([3]; 200 mg/kg orally for 2 days) [KU] | Bilirubin in serum [3, 4] [mg/dL] | GPT in serum [3, 4] [KU] | GOT in serum [3, 4] [KU] |
| --- | --- | --- | --- | --- | --- | --- | --- | --- | --- | --- | --- | --- | --- |
| CCCOC(=O)C1=C(C)NC(C)=C(C(=O)OCCC)C1C1=COCCO1 [Example 2, 3,5-di-n-propyloxycarbonyl-4-[2'-(5',6'-dihydro-p-dioxynyl)]-2,6-dimethyl-1,4-dihydropyridine] | 0.13 ± 0.03 | 1443 ± 228 | 2456 ± 734 | ≥ 2000 |  |  |  |  |  |  |  |  |  |
| Cc1c(C)c2c(c(C)c1O)CCC(C)(CCCC(C)CCCC(C)CCCC(C)C)O2 (stereo not drawn) [alpha-tocopherol, reference compound] | 0.26 ± 0.04 | 9106 ± 591 | 14558 ± 1049 |  | 0.26 ± 0.02 | 1043 ± 189 | 3065 ± 440 | 0.18 ± 0.02 | 5764 ± 1564 | 5662 ± 793 |  |  |  |
| N[C@@H](CCC(=O)N[C@@H](CS)C(=O)NCC(=O)O)C(=O)O [glutathione] |  |  |  |  |  |  |  |  |  |  | 0.22 ± 0.02 | 7722 ± 1170 | 11272 ± 1904 |
| CCOC(=O)C1=C(C)NC(C)=C(C(=O)OCC)C1C1=COCCO1 [Example 1, 3,5-diethoxycarbonyl-4-[2'-(5',6'-dihydro-p-dioxinyl)]-2,6-dimethyl-1,4-dihydropyridine] |  |  |  | ~2000 | 0.30 ± 0.06 | 862 ± 373 | 2194 ± 777 | 0.14 ± 0.02 | 1396 ± 290 | 1800 ± 321 |  |  |  |
| COC(=O)C1=C(C)NC(C)=C(C(=O)OC)C1C1=COCCO1 [Example 3, 3,5-dimethoxycarbonyl-4-2'-(5',6'-dihydro-p-dioxinyl)-2,6-dimethyl-1,4-dihydropyridine] | 0.14 ± 0.02 | 680 ± 107 | 901 ± 127 |  |  |  |  |  |  |  |  |  |  |
